What was measured:
Format in all cases: biochemical
Design in all cases: purchased NEB (New England Biolabs), Ipswich, Mass. #M0202
T4 DNA ligase [1] = molecular target: T1, T4 DNA ligase (Enterobacteria phage T4, UniProt P00970); assay: Ligase activity titer assay with blunt-ended PhiX174-HaeIII fragments, agarose gel; details: 6% 1,2-PrD, two-fold ligase dilution series, 30 min 25 C
T1 sequence (P00970 1-487): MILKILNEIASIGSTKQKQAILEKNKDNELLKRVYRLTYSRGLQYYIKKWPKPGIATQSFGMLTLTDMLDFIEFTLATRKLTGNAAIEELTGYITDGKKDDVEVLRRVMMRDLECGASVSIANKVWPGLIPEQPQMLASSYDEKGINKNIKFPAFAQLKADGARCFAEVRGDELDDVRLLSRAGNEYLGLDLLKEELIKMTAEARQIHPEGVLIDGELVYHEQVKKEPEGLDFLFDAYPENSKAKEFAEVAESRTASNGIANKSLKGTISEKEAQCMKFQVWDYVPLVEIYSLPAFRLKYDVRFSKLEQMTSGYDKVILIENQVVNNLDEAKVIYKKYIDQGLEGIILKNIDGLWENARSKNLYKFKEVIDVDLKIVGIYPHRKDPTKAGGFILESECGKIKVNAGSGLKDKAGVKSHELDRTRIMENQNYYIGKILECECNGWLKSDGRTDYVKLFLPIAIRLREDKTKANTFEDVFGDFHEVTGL
Procedure: The ligase activity in the absence and presence of 6% 1,2-PrD was determined in a two-fold ligase dilution series. The symbol “*” denotes equivalent levels of ligation, showing that ligation efficiency was enhanced 4-fold. The first and last lanes contain DNA markers.
The effectiveness of the ligation enhancer was also established for blunt-ended DNA as follows: 20 μl reactions were set up containing two-fold serial dilutions of 2000 units of T4 DNA ligase, 200 ng PhiX174-HaeIII digest (NEB, Ipswich, Mass., #N3026), and regular ligase buffer with 200 ng phiX174-HaeIII blunt-ended fragments per 20 μl, in the absence and presence of 6% 1,2-PrD. The reactions were incubated for 30 min at room temperature (25° C.) followed by electrophoresis on a 1% agarose gel. 1,2-PrD enhanced T4 DNA ligase activity 4-fold in this titer reaction.

T4 DNA ligase [2] = molecular target: T1, T4 DNA ligase; assay: Cloning of inserts with single-base 3'A overhangs into Qiagen cloning vector, ligation and subsequent transformation; details: 6% 1,2-PrD
Procedure: This test used a commercially available cloning vector from Qiagen, Valencia, Calif. (#231124) specifically designed to clone DNA fragments with single-base 3′A overhangs.
(§1) The reaction mixtures contained DNA at 50-100 ng and 1,2-PrD at different concentrations. 1 μl of regular concentration (NEB, Ipswich, Mass., #M0202; 400 units) or 1 μl of high concentration T4 DNA ligase (NEB, Ipswich, Mass., #M0202; 2000 units) was then added to a final volume of 21 μl in 1×T4 DNA Ligase Buffer (NEB, Ipwich, Mass., #B0202) or 1× Quick Ligase™ Buffer (NEB, Ipswich, Mass., #B2200).
(§2) Ligation reactions were incubated for 10 min at room temperature (25° C.) unless otherwise stated, then placed on ice for 2 min. In some experiments the ligase was heat-killed by incubation at 65° C. for 20 min. The ligation reactions were analyzed by 1% agarose gel electrophoresis to identify DNA species and determine the efficiency of […].
(§3) A volume of 2 μl from each ligation reaction was incubated with 50 μl of chemically competent (NEB, Ipswich, Mass., #C2987I) or electrocompetent (NEB, Ipswich, Mass., #C2989K) DH5 alpha E. coli cells.
(§4) For chemically competent cell transformations, the cell-DNA mixture was incubated on ice for 30 min, heat-shocked at 42° C. for 30 sec, then returned to ice for 5 min. A volume of 950 μl SOC medium (2% vegetable peptone or Tryptone, 0.5% yeast extract, 10 mM NaCl, 2.5 mM KCl, 10 mM MgCl2, 10 mM MgSO4 and 20 mM glucose) was added to the cell-DNA mixture, followed by a one hr 37° C. outgrowth period with agitation. A volume of 25-50 μl of appropriately diluted cells in SOC was spread onto Rich Agar plates (composition per liter: 10 g soy peptone, 5 g yeast extract, 10 g NaCl, 1 g MgCl2-6H2O, 1 g dextrose, 15 grams agar) supplemented with 100 μg/ml ampicillin. Plates were inverted and incubated for 16 hrs at 37° C., followed by quantification of total colony numbers.
For electrocompetent cell transformation protocols, the cell-DNA mixture was subjected to electroporation, immediately followed by the addition of 950 μl of pre-warmed 37° C. SOC medium, followed by a one hour 37° C. outgrowth period with agitation. Dilution, plating, incubation and colony quantification were performed as described in Example 1A above.

T4 DNA ligase [3] = molecular target: T1, T4 DNA ligase; details: enhancer at 12%; no addition = 1-fold; single-base overhangs
Procedure: All were tested side-by-side using two ligation test systems which were: (a) cloning of a 500 bp amplicon made by Taq DNA polymerase into a T-tailed vector; and (b) recircularization of an AhdI-linearized plasmid. Both ligation test systems used DNA with single-base overhangs.
as §1
A standard assay uses 100 ng DNA, 1 μl of T4 DNA ligase, 21 μl 1×T4 DNA ligase buffer and varying amounts of enhancer.
as §2, §3, §4

[4] = insert 68mer cassette featuring No 5' PO4, 3' A overhang
[5] = insert 513 pb human genomic amplicon using Taq DNA polymerase

CC(O)CO (stereo not shown) [1,2-PrD, 1,2-propanediol]
Enhancement of T4 DNA ligase activity (ligation efficiency) in titer reaction (T4 DNA ligase [1]): 4 fold | Cloning Enhancement (chemical transformation) (T4 DNA ligase [2]; [4]): 14-fold | Cloning Enhancement (electroporation) (T4 DNA ligase [2]; [4]): 2-fold | Cloning Enhancement (chemical transformation) (T4 DNA ligase [2]; [5]): At least 72-fold | Cloning Enhancement (electroporation) (T4 DNA ligase [2]; [5]): 11-fold | Colonies (chemical transformation) (T4 DNA ligase [2]; insert 513 pb human genomic amplicon, 0 colonies without enhancer): 72 colonies) | Recircularization Enhancement (T4 DNA ligase [3]): 11-fold
